A word on the EC50: it is the concentration giving half of the maximal effect. Low readings indicate an effect from little substance, high ones a need for much substance.

For experiment [1], the target named is T1, ABCG2 (Homo sapiens, UniProt Q9UNQ0).
T1 sequence (Q9UNQ0 1-655): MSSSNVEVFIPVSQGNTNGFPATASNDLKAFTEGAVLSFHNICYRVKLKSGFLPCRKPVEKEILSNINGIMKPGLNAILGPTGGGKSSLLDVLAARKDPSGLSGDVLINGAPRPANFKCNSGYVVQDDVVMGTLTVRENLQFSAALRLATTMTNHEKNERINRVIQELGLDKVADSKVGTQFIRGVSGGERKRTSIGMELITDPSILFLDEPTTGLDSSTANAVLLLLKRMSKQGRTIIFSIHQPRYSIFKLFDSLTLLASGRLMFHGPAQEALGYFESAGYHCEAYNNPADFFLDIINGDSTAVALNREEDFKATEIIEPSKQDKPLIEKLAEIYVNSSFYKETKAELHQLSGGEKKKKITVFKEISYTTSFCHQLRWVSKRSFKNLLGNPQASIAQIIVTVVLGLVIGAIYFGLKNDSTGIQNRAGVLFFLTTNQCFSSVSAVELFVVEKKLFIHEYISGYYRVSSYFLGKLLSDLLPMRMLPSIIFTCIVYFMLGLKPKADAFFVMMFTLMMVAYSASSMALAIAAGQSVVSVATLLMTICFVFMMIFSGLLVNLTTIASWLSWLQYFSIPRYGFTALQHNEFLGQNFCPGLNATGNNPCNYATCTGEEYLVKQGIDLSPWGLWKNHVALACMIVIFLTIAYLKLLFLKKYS
Kind of experiment: vanadate-sensitive ATPase stimulation in membrane vesicles. The format is biochemical.

Experiment [2] deals with ABCB1 (Homo sapiens, UniProt P08183). The experiment is described as above. The format is biochemical.
Chain of ABCB1 (P08183 whole entry): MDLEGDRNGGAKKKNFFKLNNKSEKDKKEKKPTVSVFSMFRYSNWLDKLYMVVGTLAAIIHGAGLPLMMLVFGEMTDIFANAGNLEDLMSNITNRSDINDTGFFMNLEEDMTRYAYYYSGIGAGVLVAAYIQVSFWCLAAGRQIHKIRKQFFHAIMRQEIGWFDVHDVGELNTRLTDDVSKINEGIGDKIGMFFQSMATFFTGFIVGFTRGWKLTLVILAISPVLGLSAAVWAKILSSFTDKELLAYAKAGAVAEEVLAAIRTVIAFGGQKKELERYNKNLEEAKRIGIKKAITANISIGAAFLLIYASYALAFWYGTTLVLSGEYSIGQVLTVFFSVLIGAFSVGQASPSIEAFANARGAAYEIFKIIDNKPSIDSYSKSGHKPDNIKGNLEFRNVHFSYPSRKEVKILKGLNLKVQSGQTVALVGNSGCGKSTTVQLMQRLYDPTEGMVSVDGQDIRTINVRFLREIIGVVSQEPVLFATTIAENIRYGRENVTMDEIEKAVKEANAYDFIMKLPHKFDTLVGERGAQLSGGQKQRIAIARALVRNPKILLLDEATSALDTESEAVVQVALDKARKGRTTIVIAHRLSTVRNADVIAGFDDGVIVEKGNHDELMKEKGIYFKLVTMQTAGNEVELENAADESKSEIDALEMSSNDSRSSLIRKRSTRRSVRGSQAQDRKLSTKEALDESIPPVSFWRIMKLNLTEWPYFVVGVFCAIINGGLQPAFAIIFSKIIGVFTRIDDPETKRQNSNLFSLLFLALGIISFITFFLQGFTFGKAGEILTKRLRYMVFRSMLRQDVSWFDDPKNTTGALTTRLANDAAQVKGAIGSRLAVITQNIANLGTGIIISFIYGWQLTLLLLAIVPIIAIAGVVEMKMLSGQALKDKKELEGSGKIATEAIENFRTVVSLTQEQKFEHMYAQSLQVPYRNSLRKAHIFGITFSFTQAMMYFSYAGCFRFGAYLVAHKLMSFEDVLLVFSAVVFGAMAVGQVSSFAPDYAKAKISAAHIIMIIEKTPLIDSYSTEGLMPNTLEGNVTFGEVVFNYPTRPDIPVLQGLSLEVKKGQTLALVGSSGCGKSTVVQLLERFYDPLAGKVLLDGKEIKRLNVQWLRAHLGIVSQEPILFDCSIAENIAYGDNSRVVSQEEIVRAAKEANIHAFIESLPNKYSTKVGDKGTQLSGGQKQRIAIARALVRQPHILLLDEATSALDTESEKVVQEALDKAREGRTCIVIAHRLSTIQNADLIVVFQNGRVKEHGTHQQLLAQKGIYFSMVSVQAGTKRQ

In the case of `COc1cc2c(cc1OC)CN(C(=O)/C=C/c1c(-c3ccccc3)n(C)c3ncccc13)CC2` [SIS3], the values for the EC50 in experiment [1] and in experiment [2] were approximately 60 nM and approximately 160 nM, respectively.

Source of the values: paper PMC6084781 (Cancer letters, 2018).
